Data on one compound can be found in patent US11332435B2, “Method for producing (3S)-3-(4-chloro-3-{[(2S,3R)-2-(4- chlorophenyl)-4,4,4-trifluoro-3-methylbutanoyl]amino}phenyl)-3-cyclo-propylpropanoic acid and the crystalline form thereof for use as a pharmaceutical ingredient” (Bayer Pharma Aktiengesellschaft, priority 2017, dated 2022).

The nature of series [1]: thermodynamic stability of the solid form. Format: physicochemical. Particulars: crystalline modification 1 compared with amorphous form of WO 2012/139888.
A short description of series [2]: stability in the micronization process. Format: physicochemical.
Series [3] in a line: bioavailability of the solid form. Format: in vivo. The following applies: crystalline form of modification 1.

For the compound `C[C@H]([C@H](C(=O)Nc1cc([C@@H](CC(=O)O)C2CC2)ccc1Cl)c1ccc(Cl)cc1)C(F)(F)F` [Example I-1, (3S)-3-(4-chloro-3-{[(2S,3R)-2-(4-chlorophenyl)-4,4,4-trifluoro-3-methylbutanoyl]amino}phenyl)-3-cyclopropylpropanoic acid], in series [1], the thermodynamic stability entry was “higher thermodynamic stability”. Also, the “stability in the micronization process (conversion, recrystallization)” value in series [2] is reported as “stable in the micronization process”. For the same compound, the bioavailability entry in series [3] is given as “reproducible bioavailability”.
